Test results reported in patent US20240317777A1, “NOVEL MACROCYCLIC AMINOPYRAZOLE COMPOUNDS AS CDK2 INHIBITORS” (Accutar Biotechnology Inc., priority 2023, published 2024).

What was measured:
Assay type in all cases: cell-based
[1] = test system: Phospho-Rb (Ser807/811) in OVCAR3 cells; assay: Phospho-Rb expression inhibition in OVCAR3 cells quantified by In Cell Western; settings: Homo sapiens, OVCAR-3, 24 hours, read-out: OVCAR-3 pRb IC50
Procedure, shortened: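 In-cell western: after 24 h compound exposure at 37° C, fixed OVCAR3 cells co-stained for pRb Ser807/811 (800 nm channel) and total Rb (680 nm channel), imaged by LI-COR Odyssey.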

[2] = test system: CCNE1-amplified OVCAR3 cells; assay: Cell growth inhibition of CCNE1-amplified OVCAR3 cells (CellTiter-Glo); settings: Homo sapiens, OVCAR-3, 144 h, 6 days
Procedure, shortened: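 Growth read-out was CellTiter-Glo luminescence, taken after 10 min at room temperature at the end of a 6-day compound exposure at 37 °C. Compounds were diluted from DMSO stocks across various concentrations.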

[3] = test system: CCNE1-normal SKOV3 cells; assay: Cell growth inhibition of CCNE1-normal SKOV3 cells (CellTiter-Glo); settings: Homo sapiens, SK-OV-3, 144 h, 6 days
Procedure: Cell Growth Inhibition of CCNE1-Normal SKOV3 Cells
SKOV3 cells were obtained from American Type Culture Collection (ATCC, HTB-77). SKOV3 cells were seeded in 96-well plates at 1000 cells/well in 90 μl of RPM11640 growth medium containing 10% FBS and 1% Penicillin Streptomycin, and then incubated at 37° C. overnight. The following day, the test compound was administered to the cells by using 1000× compound stock solution prepared in DMSO at various concentrations. 1000× compound stock solution was first diluted in culturing medium to 10x, then 10 uL compound medium was added to each well in the cell plates. After administration of the compound, the cells were then incubated at 37° C. for 6 days. Upon completion, the plates were equilibrated at room temperature for approximately 10 minutes. 100 ul of CellTiter-Glo® Reagent (Promega) was added to each well. The plates were then incubated at room temperature for 10 minutes and luminescence was recorded by EnSpire plate reader (PerkinElmer).

Row | Compound | IC50 [1] [nM] | IC50 [2] [nM] | IC50 [3] [nM]
1 | C[C@@H]1C/C=C\C(F)(F)c2cc(ccn2)Nc2cc(n[nH]2)[C@H]2CC[C@H](C2)OC(=O)N1 [Compound 168, (1^1S,1^3R,2^4Z,9R)-5,5-difluoro-9-methyl-2^1H-12-oxa-3,10-diaza-4(4,2)-pyridina-2(3,5)-pyrazola-1(1,3)-cyclopentanacyclododecaphan-6-en-11-one] | 10 to 50 | 50 to 250 | > 1250
2 | O=C1NC2CC(COc3cncc(c3)Nc3cc(n[nH]3)[C@H]3CC[C@H](C3)O1)C2 [Compound 171, (1^1S,1^3R,7^1R,7^3S,Z)-2^1H-5,10-dioxa-3,8-diaza-4(3,5)-pyridina-2(3,5)-pyrazola-1(1,3)-cyclopentana-7(1,3)-cyclobutanacyclodecaphan-9-one] | ≤ 2 | 2 to 10 | 250 to 1250
3 | C[C@H]1CCCOc2cc(c(F)cn2)Nc2cc(n[nH]2)[C@H]2CC[C@H](C2)OC(=O)N1 [Compound 174, (1^1S,1^3R,9S,Z)-4^5-fluoro-9-methyl-2^1H-5,12-dioxa-3,10-diaza-4(4,2)-pyridina-2(3,5)-pyrazola-1(1,3)-cyclopentanacyclododecaphan-11-one] | 50 to 250 | 50 to 250 | > 1250
4 | C[C@H]1CCCOc2nccc(c2F)Nc2cc(n[nH]2)[C@H]2CC[C@H](C2)OC(=O)N1 [Compound 176, (1^1S,1^3R,9S,Z)-4^3-fluoro-9-methyl-2^1H-5,12-dioxa-3,10-diaza-4(4,2)-pyridina-2(3,5)-pyrazola-1(1,3)-cyclopentanacyclododecaphan-11-one] | 2 to 10 | 10 to 50 | 250 to 1250
5 | [2H]C1([2H])CC[C@H](C)NC(=O)O[C@@H]2CC[C@@H](C2)c2cc([nH]n2)Nc2cc(F)nc(c2)O1 [Compound 179, (1^1S,1^3R,9S,Z)-4^6-fluoro-9-methyl-2^1H-5,12-dioxa-3,10-diaza-4(4,2)-pyridina-2(3,5)-pyrazola-1(1,3)-cyclopentanacyclododecaphan-11-one-6,6-d2] | 10 to 50 | 50 to 250 | > 1250
6 | [2H]C1([2H])CC(F)(F)[C@H](C)NC(=O)O[C@@H]2CC[C@@H](C2)c2cc([nH]n2)Nc2ccnc(c2)O1 [Compound 182, (1^1S,1^3R,9S,Z)-8,8-difluoro-9-methyl-2^1H-5,12-dioxa-3,10-diaza-4(4,2)-pyridina-2(3,5)-pyrazola-1(1,3)-cyclopentanacyclododecaphan-11-one-6,6-d2] | 2 to 10 | 10 to 50 | 250 to 1250
7 | C[C@@H]1NC(=O)O[C@@H]2CC[C@@H](C2)c2n[nH]c(c2F)Nc2ccnc(c2)OCCC1(F)F [Compound 188, (1^1S,1^3R,9S,E)-2^4,8,8-trifluoro-9-methyl-2^1H-5,12-dioxa-3,10-diaza-4(4,2)-pyridina-2(3,5)-pyrazola-1(1,3)-cyclopentanacyclododecaphan-11-one] | 10 to 50 | 50 to 250 | > 1250
8 | C[C@@H]1NC(=O)O[C@@H]2CC[C@@H](C2)c2cc([nH]n2)Nc2cncc(c2)OCCC1(F)F [Compound 190, (1^1S,1^3R,9S,Z)-8,8-difluoro-9-methyl-2^1H-5,12-dioxa-3,10-diaza-4(3,5)-pyridina-2(3,5)-pyrazola-1(1,3)-cyclopentanacyclododecaphan-11-one] | 2 to 10 | 10 to 50 | 250 to 1250
9 | C[C@@H]1NC(=O)O[C@@H]2CC[C@@H](C2)c2cc([nH]n2)Nc2cnnc(c2)OCCC1(F)F [Compound 218, (1^1S,1^3R,9S,Z)-8,8-difluoro-9-methyl-2^1H-5,12-dioxa-3,10-diaza-4(5,3)-pyridazina-2(3,5)-pyrazola-1(1,3)-cyclopentanacyclododecaphan-11-one] | 10 to 50 | > 250 | > 1250
10 | C[C@@H]1NC(=O)O[C@@H]2CC[C@@H](C2)c2cc([nH]n2)Nc2cncc(n2)OCCC1(F)F [Compound 219, (1^1S,1^3R,9S,Z)-8,8-difluoro-9-methyl-2^1H-5,12-dioxa-3,10-diaza-4(2,6)-pyrazina-2(3,5)-pyrazola-1(1,3)-cyclopentanacyclododecaphan-11-one] | ≤ 2 | ≤ 2 | 10 to 50
11 | C[C@H]1NC(=O)O[C@@H]2CC[C@@H](C2)c2cc([nH]n2)Nc2ccnc(c2)OCCC1(F)F [Compound 220, (1^1S,1^3R,9R,Z)-8,8-difluoro-9-methyl-2^1H-5,12-dioxa-3,10-diaza-4(4,2)-pyridina-2(3,5)-pyrazola-1(1,3)-cyclopentanacyclododecaphan-11-one] | 2 to 10 | 10 to 50 | 250 to 1250
12 | C[C@H]1NC(=O)O[C@@H]2CC[C@@H](C2)c2n[nH]c(c2F)Nc2ccnc(c2)OCCC1(F)F [Compound 228, (1^1S,1^3R,9R,E)-2^4,8,8-trifluoro-9-methyl-2^1H-5,12-dioxa-3,10-diaza-4(4,2)-pyridina-2(3,5)-pyrazola-1(1,3)-cyclopentanacyclododecaphan-11-one] | 50 to 250 | 50 to 250 | > 1250
13 | C[C@@H]1CCCNC(=O)O[C@@H]2CC[C@@H](C2)c2cc(n[nH]2)Nc2ccnc(c2)O1 [compound 11] | 10 to 50 | 50 to 250 | > 1250
14 | O=C1NC23CC(CCc4cc(cc(C(F)F)n4)Nc4cc([nH]n4)[C@H]4CC[C@H](C4)O1)(C2)C3 [compound 20] | 10 to 50 | 10 to 50 | > 1250
15 | O=C1NC23CC(CCOc4cc(cc(C(F)F)n4)Nc4cc([nH]n4)[C@H]4CC[C@H](C4)O1)(C2)C3 [compound 23] | ≤ 2 | 2 to 10 | 50 to 250
16 | C[C@@H]1OCCCNC(=O)O[C@@H]2CC[C@@H](C2)c2cc([nH]n2)Nc2ccnc1c2 [compound 72] | 10 to 50 | > 250 | > 1250
17 | C[C@H]1CCC2(CC2)NC(=O)O[C@@H]2CC[C@@H](C2)c2cc([nH]n2)Nc2ccnc(c2)O1 [compound 110] | 50 to 250 | > 250 | > 1250
